Data as given in US20240384250A1, “FIBROBLAST GROWTH FACTOR 23 MODULATING COMPOUNDS” (THE UAB RESEARCH FOUNDATION, priority 2021, published 2024).
Entries after “also recorded” stand apart in the source; their conditions may differ.

What was measured:
[1] = system: adult rat ventricular myocytes (ARVMs); assay: Calcium transients and cell shortening in adult rat ventricular myocytes; type: cell-based
Description: As done before,^69 adult male Wistar rats (150-200 g) were killed and hearts were quickly removed and cannulated via the ascending aorta on a Langendorff system where they were retrograde perfused and digested by type II collagenase. Hearts were perfused with calcium-free Tyrode's solution supplemented with 0.2 mmol/L of ethyleneglycol-bis-((3-aminoethylether)-N,N, N′,N′-tetraacetic acid for 3 minutes. For the digestion, hearts were perfused with Tyrode's solution containing 0.1 mmol/L of CaCl2), 1 mg/ml of type II collagenase (Worthington), and 1 mg/ml of BSA for 3 to 4 minutes at room temperature. Cells were resuspended in Tyrode's solution containing 1 mmol/L of CaCl2). Tyrode's solution contains 130 mM NaCl, 5.4 mM KCl, 0.4 mM NaH2PO4, 0.5 mM MgCl2, 25 mM N-2-hydroxyethylpiperazine-N-2-ethanesulfonic acid, and 22 mM glucose. Adult rat ventricular myocytes (ARVMs) were loaded with the fluorescent Ca^2+ dye Fluo-3 AM (Thermo Fisher Scientific) for cytosolic Ca^2+ measurements. Loaded ARVMs were acutely perfused during 2 minutes with vehicle, FGF23 (10 ng/ml), or a combination of FGF23 and heparin (0.7 USP/ml). Cytosolic Ca^2+ transients were recorded under 1 Hz of field stimulation using 2 parallel platinum electrodes. Images were obtained with confocal microscopy (Zeiss LSM 510-META microscope), using a 40× objective by scanning the cell with an argon laser every 1.54 ms. Fluo-3 AM was excited at 488 nm, and emissions were collected at >505 nm. Cell contraction was stimulated as the difference in cell length between rest and contraction (during electrical stimulation), expressed as a percentage of shortening of the cell length. Image analysis was performed with self-made routines using IDL (Research Systems) and ImageJ (v1.53) software.

[2] = system: neonatal rat ventricular myocytes; assay: Hypertrophic growth of isolated neonatal rat ventricular myocytes (cell area); type: cell-based; conditions: for FGF23-induced increase in the cell area in the presence of heparin: heparin 0.19 USP/ml, increasing FGF23 concentrations, 48 hours
Description: Neonatal rat ventricular myocytes (NRVMs) were isolated using a kit according to the manufacturer's protocol (LK003300, Worthington Biochemical Corporation), as done previously.^13,16,17 Briefly, hearts from 1- to 3-day-old Sprague Dawley rats (Envigo) were harvested and minced in calcium- and magnesium-free Hanks balanced salt solution and the tissue was digested with 50 μg/ml of trypsin at 4° C. for 20 to 24 hours. Soybean trypsin inhibitor in Hanks balanced salt solution was added, and the tissue was further digested with collagenase (in Leibovitz L-15 medium) under slow rotation (0.14 g) at 37° C. for 45 minutes. Cells were broken up by triturating the suspension 20× with a standard 10-ml plastic serological pipette. Cells were then filtered through a cell strainer (70 μm, BD Falcon). Cells were incubated at room temperature for 20 minutes and spun at 100 g for 5 minutes. The cell pellet was resuspended in plating medium (DMEM Base [10013CV, Corning], 17% M199 [12350039, Gibco], 15% FBS [26140079, Gibco], I× Pen/Strep [15140122, Gibco]). For cell tracings, NRVMs were grown in 24-well plates on glass coverslips (CLS1760012, Chemglass). Slips were precoated with laminin (23017015, Invitrogen) at 10 μg/ml for 1 hour at 37° C. dissolved in PBS. Laminin was aspirated, and cells and medium were added. Cells were counted by a hemocytometer and plated at 4×10^5 cells per well. […] After 48 hours, maintenance medium was replaced, and after another 48 hours, cells were ready for treatment, giving a total of 72 hours of plating medium and 96 hours of maintenance medium before treatment. […]
The medium was aspirated, and cultured NRVMs were fixed in 2% paraformaldehyde (P-6148, Sigma-Aldrich) and 4% sucrose dissolved in PBS for 5 minutes followed by permeabilization with 1% Triton X-100 dissolved in PBS for 10 minutes. […] The cross-sectional area of myocytes was measured on the basis of α-actinin-positive staining using ImageJ software (v1.53, National Institutes of Health). […]

## heparin [reference compound]
[1]; FGF23 10 ng/ml with heparin 0.7 USP/ml
  FGF23 effect on [Ca2+]i transients in the presence of heparin: became statistically significant; also recorded: significantly increased
[1]; FGF23 with heparin
  FGF23 effect on cell shortening with addition of heparin: significantly increased the effect of FGF23
[1]; heparin 0.7 USP/ml
  [Ca2+]i transients, heparin by itself: no significant effects
[1]; heparin alone
  cell shortening, heparin by itself: no significant effects
[2]
  FGF23-induced increase in the cell area in the presence of heparin: increased this effect at all FGF23 concentrations
[2]; listed as heparin
  FGF23-induced increase in the cell area in the presence of heparin: further elevated
[2]; without FGF23, 48 hours
  NRVM area, treatment by itself: no effect
